Assay results from publication PMC9115112, “A2B adenosine receptor antagonists rescue lymphocyte activity in adenosine-producing patient-derived cancer models” (Journal for Immunotherapy of Cancer, 2022).

How the values were obtained:
human A1AR = molecular target: T1, human A1AR (Homo sapiens, UniProt P30542); test: Radioligand binding, human A1AR ([3H]DPCPX, transfected CHO cells); conditions: displacement of [3H]DPCPX, n=3, racemic mixtures
T1 construct: expressed in transfected cells; host or cells: CHO
T1 sequence (P30542 1-326): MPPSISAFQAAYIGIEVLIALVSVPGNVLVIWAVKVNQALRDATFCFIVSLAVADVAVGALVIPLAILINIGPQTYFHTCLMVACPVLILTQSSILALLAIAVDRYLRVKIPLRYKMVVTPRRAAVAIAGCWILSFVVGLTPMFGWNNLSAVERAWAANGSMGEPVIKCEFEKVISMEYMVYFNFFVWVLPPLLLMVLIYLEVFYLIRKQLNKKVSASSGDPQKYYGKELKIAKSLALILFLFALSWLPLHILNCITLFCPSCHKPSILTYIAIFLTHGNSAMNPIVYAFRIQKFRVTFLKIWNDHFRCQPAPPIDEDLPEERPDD
Description: (§1) The affinity and selectivity profiles of the ligands obtained was studied in vitro, radioligand binding assays, at the four human specific ARs subtypes, using experimental protocols previously described.[28–30] All ligands were prepared and tested as racemic mixtures. […] Non-specific binding was determined in the presence of R-PIA 10 µM for A1AR, NECA 50 µM for A2AAR, NECA 400 μΜ for A2BAR and R-PIA 100 μΜ for A3AR.

[1] = tested on: pAMPK in CD4 and CD8 T cells; test: Extracellular ADO uptake assay via pAMPK staining; type: cell-based, human; conditions: antagonist 12 µM, 50 µM exogenous adenosine, n=7 healthy donors
Description: Experimental setup was adopted from a previous study whereby AR antagonist was added to pretreat cells before exogenous adenosine treatment for intracellular and cytokine staining.[37] In brief, PBMCs were treated with 12 µM of A2BAR antagonists for 90 min before the addition of 50 µM of adenosine for 2 hours. Cells were harvested after 3 hours of CD3/CD28 bead stimulation before intracellular staining with phosphor-AMPK (Thr183, Thr172) rabbit primary antibody (Thermo Fisher Scientific) and antirabbit secondary antibody (BD biosciences).
Figure 4 Rescue of lymphocyte proinflammatory cytokine production IFNy and perforin by A2BAR antagonism. (A,B) Inhibition of extracellular adenosine uptake via phosphorylated-AMP activated protein kinase (pAMPK) staining (n=7 healthy donors). Production of proinflammatory cytokines—(C,D) IFNy and (E) perforin in CD4 (n=5 healthy donors) and CD8 (n=6 healthy donors) T cells. Expression of CD69 adhesion molecule in (F). CD4 (n=7 healthy donors) and (G) CD8 (n=4 healthy donors) T cells. A2BAR antagonist 12 µM was added. Outlier is presented as diamond shape and defined by Tukey’s rule, which is not included in statistical analysis. Box plots with minimum, first quartile, median, third quartile, and maximum are presented. Normalized fold change is based on percent values compared with untreated controls. Unpaired and non-parametric statistical analysis—Mann-Whitney test was performed against untreated control with *p<0.05, **p<0.01, ***p<0.001, and ****p<0.0001.

human A2BAR = molecular target: T2, human A2BAR (Homo sapiens, UniProt P29275); test: Radioligand binding, human A2BAR ([3H]DPCPX, transfected HEK-293 cells); conditions: displacement of [3H]DPCPX, human HEK-293 cells, n=3, racemic mixtures; read-out: Ki hA2B
T2 construct: expressed in transfected cells; host or cells: HEK-293
T2 sequence (P29275 1-332): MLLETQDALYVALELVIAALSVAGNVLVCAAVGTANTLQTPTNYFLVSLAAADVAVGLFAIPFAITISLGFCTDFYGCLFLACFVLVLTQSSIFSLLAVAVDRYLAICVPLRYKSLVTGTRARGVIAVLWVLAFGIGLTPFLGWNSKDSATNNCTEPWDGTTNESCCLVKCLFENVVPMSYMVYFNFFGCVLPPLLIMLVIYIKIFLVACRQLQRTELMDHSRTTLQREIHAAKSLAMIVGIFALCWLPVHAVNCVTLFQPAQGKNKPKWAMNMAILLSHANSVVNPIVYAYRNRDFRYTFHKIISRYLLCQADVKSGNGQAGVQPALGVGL
Description: as §1

[2] = tested on: sarcoma TILs against autologous tumor cells; test: Chromium (51Cr) release cytotoxicity assay, sarcoma TILs; type: cell-based, human; conditions: synthetic ADO, 24 hours
Description: Chromium (51Cr) release cytotoxicity assay
Chromium (51Cr) release assay was used to measure the autologous TILs-mediated cytotoxicity against the established patient-derived breast and […] cell lines. Briefly, breast and sarcoma tumor cells were labelled with 51Cr (PerkinElmer) as target cells and seeded on 96-well V-bottom plate (Corning) at 5 000cells/well. Effector TILs were added at the indicated Effector: Target (E:T) ratios. The supernatants were collected carefully into LUMA plates (PerkinElmer) after 24 and 48 hours of co-culture. After drying overnight, radioactivity of the plate was read with MicroBeta2 (PerkinElmer).
Relative adenosine production assay
An ectonucleotidase CD73 assay was optimized to measure the relative ADO production based on competitive AMP blockade and presence of CD73+ cells. Day five patient-derived sarcoma spheroids were digested and split into triplicates in X-VIVO20 and 1% PS culture media with an excessive amount of AMP at 0.4mM (Sigma-Aldrich) incubated for 30 minutes.
After 1500 RPM was applied for three minutes, 25 μL supernatant were removed and mixed with 25 μL of 200 μM ATP (Sigma-Aldrich) in the same media. 25 μL of this mixture was added to a white opaque OptiPlate (PerkinElmer) containing 25 μL Cell-Titer Glo reagent (Promega, US). Relative luminescence unit (RLU) can be read on SPARK 10M plate reader with an integration time of 100ms. […]

## CC1=C(C(=O)OC(C)C)C(c2ccoc2)n2c(nc3cc(Cl)ccc32)N1 (stereo not shown) [ISAM-M89A]
Human A1AR; human CHO cells
  Ki hA1: devoid of affinity
[1]
  pAMPK (extracellular ADO uptake) in CD8 T cells: significantly inhibited ADO uptake

## CC1=C(C(=O)OC(C)C)C(c2ccco2)n2c(nc3ccccc32)N1Cc1ccccc1F (stereo not shown) [ISAM-R56A]
Human A1AR; transfected CHO cells, read-out: Ki hA1
  Ki: > 1000 nM
Human A2BAR
  Ki: 1.5 nM
[1]
  pAMPK (extracellular ADO uptake) in CD4 T cells: significantly downregulated pAMPK
  pAMPK (extracellular ADO uptake) in CD8 T cells: significantly downregulated pAMPK
[2]
  Rescue of killing in sarcoma TILs against autologous tumor cells: also rescued killing
